# Tests used:
# PC-3 tumor cells = type: cell-based, human
# Experimental: In the cell efflux experiment, PC-3 cells were seeded into 12-well plates at a density of 5×10^5 cells per well for overnight incubation. Cells were rinsed 3 times with PBS and then the appropriate ^18F-labeled peptide tracer was added. The cells were incubated at 37° C. for 2 hr, washed with PBS, and then reincubated with serum-free medium. The cells were washed at different time points (0, 15, 30, 60, 120, 180 min) with PBS and lysed with NaOH-SDS (0.2 M NaOH, 1% SDS). The cell lysate was collected in measurement tubes for counting. Efflux values at different time points were calculated by subtracting retention from 0-min retention, and normalized by dividing the total counts at 0 min.
# The cell uptake studies were performed as we have previously described with some modifications (Chen et al., Mol Imaging Biol. (2004) […]; Cai et al., (2006) J. Nuc. Med. 47: 1172-1180, incorporated herein by reference in their entireties). Briefly, PC-3 cells were seeded into 12-well plates at a density of 5×10^5 cells per well and incubated (about 18 kBq/well) with ^68Ga-labeled tracers at 37° C. for 15, 30, 60, and 120 min. Tumor cells were then washed three times with chilled PBS and harvested by trypsinization with 0.25% trypsin/0.02% EDTA (Invitrogen). The cell suspensions were collected and measured in a y counter (Packard, Meriden, Conn.). The cell uptake was expressed as the percent added dose (% AD) after decay correction. Experiments were performed twice with triplicate wells. For efflux studies, ^68Ga-labeled tracers (about 18 kBq/well) were first incubated with PC-3 cells in 12-well plates for 1 h at 37° C. to allow internalization. Then cells were washed twice with PBS, and incubated with cell culture medium for 15, 30, and 60 min. After washing three times with PBS, cells were harvested by trypsinization with 0.25% trypsin/0.02% EDTA. The cell suspensions were collected and measured in a γ counter. Experiments were performed twice with triplicate wells. Data are expressed as percent added dose after decay correction.
# in vivo = test: in vivo; design: species or system mice; details: male, athymic nude, mouse, 0.74 MBq, total radioactivity
# Experimental: At 0.5 h and 1 h after injection of the tracer, the tumor-bearing mice were killed and dissected. Blood, tumor, major organs, and tissues were collected and wet-weighed. The radioactivity in the tissue was measured by y counter (Packard). The results are presented as percentage injected dose per gram of tissue (% ID/g). For each mouse, the radioactivity of the tissue samples was calibrated against a known aliquot of the injectate and normalized to a body mass of 20 g. Values were expressed as mean±SD for groups of four animals (n=4 per group).
# [1] = MicroPET blood and normal organ uptake in T47D and MDA-MB-435 tumor-bearing nude mice; details: for tissue uptake at 2 h / tissue uptake at 0.5 h / tissue uptake at 1 h / tissue uptake at 4 h / tissue uptake at 24 h: nude, mouse, iv, total radioactivity
# Description: The T47D or MDA-MB435 tumor uptake is expressed as the average of each tracer in four mice, while the normal organ uptake is expressed as the average of each tracer in eight mice (four T47D tumor-bearing mice and four MDA-MB-435 tumor-bearing mice per tracer).
# PC-3 tumor = test: Small-animal PET of PC-3 tumor-bearing mice
# T47D tumor = test: MicroPET of T47D tumor-bearing mice; type: in vivo; details: orthotopic model
# Description: The MDA-MB-231, MDA-MB468, BT474, BT-20, T47D, MCF-7 and MDA-MB435 human breast cancer cell lines were all obtained from the American Type Culture Collection (ATCC) and maintained under standard conditions according to ATCC. The MDA-MB435 tumor model was established by orthotopic injections of 5×10^6 cells into the right mammary fat pad of female athymic nude mice. For T47D tumor model establishment, the female nude mice were first subcutaneously implanted with 60-day release 17β-estradiol pellets (Innovative Research of America, Sarasota, Fla.) in the left neck. One day after the estradiol implantation, 1×10^7 T47D cells were orthotopically injected into the right mammary fat pad of the nude mice. The mice were subjected to microPET studies when the tumor volume reached 100-300 mm^3 (2-3 weeks for MDA-MB-435, and 4-5 wk for T47D).
# (§1) Quantification of tumor and major organ activity accumulation in the microPET scans was realized by measuring the regions of interest (ROIs) that encompassing the entire organ on the coronal images.
# MDA-MB-435 tumor = test: Small-animal PET of MDA-MB-435 tumor-bearing mice; details: female, athymic nude, mouse, in vivo, iv
# Experimental: The MDA-MB435 tumor model was established by orthotopic injections of 5×10^6 cells into the right mammary fat pad of female athymic nude mice. […] The mice were subjected to microPET studies when the tumor volume reached 100-300 mm^3 (2-3 weeks for MDA-MB-435, and 4-5 wk for T47D).
# For static PET, 5-min scans were acquired at 30 min, 1 h, and 2 h after injection. For dynamic PET, 30-min scans (1×30 s, 4×1 min, 1×1.5 min, 4×2 min, 5×3 min; total 15 frames) were started 1 min after injection, and two 5-min static PET images were also acquired at 1 h and 2 h after injection. The images were reconstructed using a two-dimensional ordered subsets expectation maximum (OSEM) algorithm and no correction was applied for attenuation or scatter. […] For each small-animal PET scan, regions of interest (ROIs) were drawn over the tumor, normal tissue, and major organs using vendor software ASI Pro 5.2.4.0 on decay-corrected whole-body coronal images. The maximum radioactivity concentrations (accumulation) within a tumor or an organ were obtained from mean pixel values within the multiple ROI volume, and were converted to megabecquerels per milliliter per minute using a conversion factor. These values were then divided by the administered activity to obtain (assuming a tissue density of 1 g/ml) an image ROI-derived percent injected dose per gram (% ID/g).
# as §1
# [2] = blood, Blood uptake, average of eight mice
# [3] = kidney, Kidney uptake, average of eight mice
# [4] = liver, Liver uptake, average of eight mice
# [5] = muscle, Muscle uptake, average of eight mice
smiles,measurement,setting,value
CSCC[C@H](NC(=O)[C@H](CC(C)C)NC(=O)[C@H](Cc1c[nH]cn1)NC(=O)CNC(=O)[C@@H](NC(=O)[C@H](C)NC(=O)[C@H](Cc1c[nH]c2ccccc12)NC(=O)[C@H](CCC(N)=O)NC(=O)CCCCCNC(=O)CC[C@H](NC(=O)COCCOCCOCCNC(=O)c1ccc([18F])cc1)C(=O)NCCCC[C@@H]1NC(=O)[C@@H](Cc2ccc(O)cc2)NC(=O)[C@H](CC(=O)O)NC(=O)CNC(=O)[C@H](CCCNC(=N)N)NC1=O)C(C)C)C(N)=O [^18F-FB-PEG3-RGD-BBN],efflux ratio,PC-3 tumor cells,about 40%
same,tissue uptake at 1 h,"in vivo; kidney uptake, biodistribution",4.87 ± 0.67 %ID/g
same,tissue uptake at 1 h,"in vivo; tumor uptake, biodistribution",4 ± 0.08 %ID/g
same,tissue uptake at 1 h,"in vivo; uptake values in the blood, heart, liver, spleen, bone, and muscle",< 2 %ID/g
same,Liver uptake,"[1]; average of eight mice, 0.5 h",1.13±0.43 % ID/g
same,Kidney uptake,"[1]; average of eight mice, 2 h",0.74±0.19 % ID/g
same,tissue uptake at 2 h,"[1]; female, kidney",0.74 ± 0.19 %ID/g
same,tissue uptake at 0.5 h,"[1]; female, liver",1.13 ± 0.43 %ID/g
same,tissue uptake at 0.5 h,[1]; blood,0.78 ± 0.37 %ID/g
same,tissue uptake at 1 h,[1]; blood,0.41 ± 0.11 %ID/g
same,tissue uptake at 2 h,[1]; blood,0.18 ± 0.02 %ID/g
same,tissue uptake at 0.5 h,[1]; kidney,2.77 ± 0.78 %ID/g
same,tissue uptake at 1 h,[1]; kidney,1.56 ± 0.32 %ID/g
same,tissue uptake at 1 h,[1]; liver,0.56 ± 0.21 %ID/g
same,tissue uptake at 2 h,[1]; liver,0.23 ± 0.07 %ID/g
same,tissue uptake at 0.5 h,[1]; muscle,0.81 ± 0.23 %ID/g
same,tissue uptake at 1 h,[1]; muscle,0.33 ± 0.17 %ID/g
same,tissue uptake at 2 h,[1]; muscle,0.15 ± 0.05 %ID/g
same,decrease of tumor uptake by BBN blocking,"PC-3 tumor; 1 h, Aca-BBN(7-14) 15 mg/kg, n=3",65%
same,decrease of tumor uptake by RGD and BBN blocking,"PC-3 tumor; 1 h, RGD 10 mg/kg and BBN 15 mg/kg, n=3",90%
same,decrease of tumor uptake by RGD blocking,"PC-3 tumor; 1 h, c(RGDyK) 10 mg/kg, n=3",50%
same,blood % ID/g at 30 min relative to that at 2 min p.i.,"PC-3 tumor; mouse, in vivo",35%
same,time of peak kidney uptake,"PC-3 tumor; mouse, in vivo",about 10 min
same,T47D tumor uptake,T47D tumor; 0.5 h,2.96±0.53 % ID/g
same,T47D tumor uptake,T47D tumor; 1 h,1.81±0.34 % ID/g
same,T47D tumor uptake,T47D tumor; 2 h,0.91±0.12 % ID/g
"CSCC[C@H](NC(=O)[C@H](CC(C)C)NC(=O)[C@H](Cc1c[nH]cn1)NC(=O)CNC(=O)[C@@H](NC(=O)[C@H](C)NC(=O)[C@H](Cc1c[nH]c2ccccc12)NC(=O)[C@H](CCC(N)=O)NC(=O)CCCCCNC(=O)CC[C@H](NC(=S)Nc1ccc(C[C@H]2CN(CC(=O)O)CCN(CC(=O)O)CCN2CC(=O)O)cc1)C(=O)NCCCC[C@@H]1NC(=O)[C@@H](Cc2ccc(O)cc2)NC(=O)[C@H](CC(=O)O)NC(=O)CNC(=O)[C@H](CCCNC(=N)N)NC1=O)C(C)C)C(N)=O [^64Cu-NOTA-RGD-BBN, metal not drawn]",MDA-MB-435 tumor uptake,MDA-MB-435 tumor; 1 h,1.84 ± 0.44 % ID/g
same,MDA-MB-435 tumor uptake,MDA-MB-435 tumor; 2 h,1.47 ± 0.19 % ID/g
same,Blood uptake,"[1]; average of eight mice, 0.5 h",1.40 ± 0.34 % ID/g
same,Kidney uptake,"[1]; average of eight mice, 0.5 h",5.29 ± 0.58 % ID/g
same,Liver uptake,"[1]; average of eight mice, 0.5 h",4.82 ± 1.34 % ID/g
same,Muscle uptake,"[1]; average of eight mice, 0.5 h",0.91 ± 0.27 % ID/g
same,Kidney uptake,"[1]; average of eight mice, 1 h",4.32 ± 0.55 % ID/g
same,Liver uptake,"[1]; average of eight mice, 1 h",4.05 ± 1.12 % ID/g
same,Muscle uptake,"[1]; average of eight mice, 1 h",0.75 ± 0.12 % ID/g
same,Kidney uptake,"[1]; average of eight mice, 2 h",3.28±0.99 % ID/g
same,Liver uptake,"[1]; average of eight mice, 2 h",3.22 ± 0.97 % ID/g
same,Muscle uptake,"[1]; average of eight mice, 2 h",0.56 ± 0.33 % ID/g
same,tissue uptake at 1 h,"[1]; blood, Blood uptake, average of eight mice, 1 h",1.01 ± 0.21 %ID/g
same,tissue uptake at 2 h,"[1]; blood, Blood uptake, average of eight mice, 2 h",0.89 ± 0.23 %ID/g
same,tissue uptake at 4 h,[1]; [2],0.54 ± 0.2 %ID/g
same,tissue uptake at 24 h,[1]; [2],0.36 ± 0.04 %ID/g
same,tissue uptake at 4 h,[1]; [3],2.95 ± 0.26 %ID/g
same,tissue uptake at 24 h,[1]; [3],2.1 ± 0.72 %ID/g
same,tissue uptake at 4 h,[1]; [4],2.76 ± 0.81 %ID/g
same,tissue uptake at 24 h,[1]; [4],2.24 ± 0.36 %ID/g
same,tissue uptake at 4 h,[1]; [5],0.4 ± 0.07 %ID/g
same,tissue uptake at 24 h,[1]; [5],0.21 ± 0.04 %ID/g
same,T47D tumor uptake,T47D tumor; 0.5 h,3.73 ± 0.81 % ID/g
same,T47D tumor uptake,T47D tumor; 1 h,2.33 ± 0.59 % ID/g
same,T47D tumor uptake,T47D tumor; 2 h,1.97 ± 0.32 % ID/g
"CSCC[C@H](NC(=O)[C@H](CC(C)C)NC(=O)[C@H](Cc1c[nH]cn1)NC(=O)CNC(=O)[C@@H](NC(=O)[C@H](C)NC(=O)[C@H](Cc1c[nH]c2ccccc12)NC(=O)[C@H](CCC(N)=O)NC(=O)CCCCCNC(=O)CC[C@H](NC(=S)Nc1ccc(C[C@H]2CN(CC(=O)O)CCN(CC(=O)O)CCN2CC(=O)O)cc1)C(=O)NCCCC[C@@H]1NC(=O)[C@@H](Cc2ccc(O)cc2)NC(=O)[C@H](CC(=O)O)NC(=O)CNC(=O)[C@H](CCCNC(=N)N)NC1=O)C(C)C)C(N)=O [^68Ga-NOTA-RGD-BBN, metal not drawn]",cell-associated tracer (cell retention),"PC-3 tumor cells; PC-3 cells, 60 min efflux, FIG. 14D",1.14±0.50 % AD
same,tissue uptake at 0.5 h,"in vivo; kidney uptake, biodistribution",8.76 ± 1.83 %ID/g
same,tissue uptake at 1 h,"in vivo; kidney uptake, biodistribution",5.58 ± 0.75 %ID/g
same,tissue uptake at 0.5 h,"in vivo; tumor uptake, biodistribution",5.43 ± 0.54 %ID/g
same,tissue uptake at 1 h,"in vivo; tumor uptake, biodistribution",4.76 ± 0.46 %ID/g
same,Blood uptake,"[1]; average of eight mice, 0.5 h",2.91 ± 0.28 % ID/g
same,Blood uptake,"[1]; average of eight mice, 1 h",1.95 ± 0.47 % ID/g
same,Blood uptake,"[1]; average of eight mice, 2 h",1.06 ± 0.23 % ID/g
same,Kidney uptake,"[1]; average of eight mice, 2 h",1.64±0.40 % ID/g
same,Liver uptake,"[1]; average of eight mice, 2 h",1.60 ± 0.09 % ID/g
same,tissue uptake at 2 h,"[1]; female, kidney, Kidney uptake, average of eight mice, 2 h",1.64 ± 0.4 %ID/g
same,tissue uptake at 0.5 h,"[1]; female, liver, Liver uptake, average of eight mice, 0.5 h",2.68 ± 0.29 %ID/g
same,tissue uptake at 0.5 h,"[1]; kidney, Kidney uptake, average of eight mice, 0.5 h",4.39 ± 1.05 %ID/g
same,tissue uptake at 1 h,"[1]; kidney, Kidney uptake, average of eight mice, 1 h",3.96 ± 1.12 %ID/g
same,tissue uptake at 1 h,"[1]; liver, Liver uptake, average of eight mice, 1 h",2.08 ± 0.43 %ID/g
same,tissue uptake at 0.5 h,"[1]; muscle, Muscle uptake, average of eight mice, 0.5 h",1.33 ± 0.28 %ID/g
same,tissue uptake at 1 h,"[1]; muscle, Muscle uptake, average of eight mice, 1 h",1.18 ± 0.44 %ID/g
same,tissue uptake at 2 h,"[1]; muscle, Muscle uptake, average of eight mice, 2 h",0.78 ± 0.07 %ID/g
same,time of peak kidney uptake,"PC-3 tumor; mouse, in vivo",about 10 min

# — patent US20100015058A1, “RADIOLABELED BBN-RGD HETERODIMERS FOR CANCER TARGETING” (STANFORD UNIVERSITY, priority 2008, published 2010)
